Experimental data reported in US20250032557A1, “Novel Strain Having Antagonism Against Proteus Mirabilis and Excellent Effect on Neurodegenerative Disease, and use Thereof” (METACEN THERAPEUTICS CO., LTD, priority 2021, published 2025).

Assay: Protective ability against MPP^+ induced apoptosis of neurons (WST-1 cell viability)
Format: cell-based
Conditions: human, MPP^+ 1 mM alone, read-out: Cell viability % compared to control
Description: The following experiment was performed to evaluate the protective ability against apoptosis of neurons caused by MPP^+, a Parkinson's disease-inducing toxicity, in differentiated SH-Sy5y cells (brain neurons) for the Weissella cibaria strains shown in Table 2 above.
Thereafter, the existing medium was removed and replaced with 0.5% fetal bovine serum DMEM medium to which a sample was added at various concentrations. After 4 hours, the cells were treated with MPP^+ neurotoxicity at a concentration of 1 mM and cultured for an additional 44 hours. Thereafter, the medium was treated with the WST-1 solution and cultured for 2 hours to induce a reduction reaction, and then the absorbance was measured at 450 nm using an ELISA microplate reader.

## C[n+]1ccc(-c2ccccc2)cc1 [MPP^+, 1-methyl-4-phenylpyridinium iodide]
  viability at 44 h, 1 mM: 53%
